Test results reported in patent publication US9439876B2, “Method of treating microbial infections” (priority 2014, dated 2016).
Entries after “also recorded” stand apart in the source; their conditions may differ.

Legend:
Type in all cases: cell-based
[1] = tested on: Candida albicans wild type strain SN250; test: Screen for inhibition of Candida albicans lawn formation (halo) on solid YPD plates; conditions: for inhibition of C. albicans growth (halo formation) on YPD plates: 5 μl of 10 mM drug on fungal lawn, 25° C. and 37° C.
Experimental: (§1) C. albicans was plated on solid YPD and serum plates, and 5 μl of each 10 mM drug was placed on top of the fungal lawn. The effect of exposure to each of the compounds from the library was assayed for its ability to inhibit C. albicans growth, as well as ability to form a halo within the fungal lawn. […] (FIG. 1A).
(§2) High-throughput Screening Assay: The sensitivity of C. albicans against compounds was assessed by a high-throughput chemical screen. 200 μl of C. albicans overnight culture were spread onto petri dishes containing either YPD or fetal bovine serum. 5 μl of each drug was placed directly on the agar surface using a multichannel pipette and slight contact of the tip to the agar made to leave an impression to facilitate later analysis. Compounds that were replicated were done on petri dishes, following the same protocol in at least five independent experiments. For the replication studies, only a single drug was placed per plate. The plates were incubated at either 25° C. or 37° C.

[2] = tested on: Candida albicans wild type strain SN250; test: Screen for inhibition of Candida albicans lawn formation (halo) on solid serum (FBS agar) plates; conditions: 5 μl of 10 mM drug on fungal lawn, 25° C. and 37° C.
Experimental: as §1
Media and Growth Conditions: C. albicans strains were cultured with 5 ml of YPD (1% yeast extract, 2% peptone, 2% dextrose, pH 6) medium at 30° C. overnight. Bacterial cells were cultured in LB (Luria-Bertani) medium consisting of 5 g Bacto-Tryptone, 2.5 g Bacto-Yeast Extract, 5 g NaCl and 7.5 g of 2% agar if preparing solid plates. The centrifuge tubes were incubated at 37° C. and left shaking overnight at 150 rpm. Fetal bovine serum was incorporated into agar. Fetal bovine serum was preheated in a water bath set at 65° C. […] The agar solution for the serum mixture consisted of 16 g agar, which was then brought up to 300 ml with nanopure water. The agar solution was then autoclaved at 120° C. for 45 minutes. The agar and serum mixtures were then amalgamated while in their isothermal states.
as §2

[3] = tested on: RAW264.7 mouse macrophage cells; test: Mammalian cell survival assay (MTT); conditions: RAW264.7, 1 μl of 10 mM drug in 100 μl media with two-fold dilutions, 24 hours
Experimental: Mammalian cell culture, drug treatment, and survival assay: RAW264.7 mouse macrophage cells were maintained in DMEM (Dulbecco's Modified Eagle Medium, Sigma-Aldrich) supplemented with 10% FBS (fetal bovine serum, Bioexpress) and 100 μg/mL penicillin and 100 μg/mL streptomycin. RAW264.7 cells (10,000 per well) were seeded in 96-well plates (100 μL/well) 24 hours before the assay. During the assay, 1 μl of 10 mM drug was added to 100 μl of cell-containing media. Two-fold serial dilutions of the media were performed. Cells were treated with drugs for 24 hours, and determination of cell viability by 3-(4,5-dimethylthiazol-2-yl)-2,5-diphenyltetrazolium bromide (MTT) assay was performed as described in Lu et al., 2004, Proc Natl Acad Sci USA 101:17246-17251, the entire content of which is herein incorporated by reference.
Each data point shown in the figure for MTT assays represents the average of results from at least two wells in each of at least two separate experiments. Cell viability is shown as the percentage of survivors obtained relative to untreated cells (100%).

[4] = tested on: Escherichia coli strain C600; test: Halo formation in bacterial lawn, gram-negative bacteria; conditions: 5 μl of neat form (3 mg of undiluted)
Excerpt: (§3) In order to test if Octodrine kills microorganisms by targeting their non-protein cellular components, Escherichia coli and Bacillus cereus, gram-negative and gram-positive bacteria respectively, were exposed to Octodrine.
(§4) Candida albicans and Bacterial Strains: The Candida albicans wild type strain SN250 was used for the high-throughput screening experiments. The bacterial strain consisted of Bacillus cereus strain 10987 and Escherichia coli strain C600. The genotypic screen for mutant sensitivity to Octodrine was tested with three C. albicans libraries that were previously created as disclosed in Noble, 2010, supra; Rauceo, J M et al., 2008, Mol Biol Cell 19:2741-2751; and Homann, O R et al., 2009, PLoS Genet 5:e1000783, the entire contents of all of which are herein incorporated by reference.
(§5) Media and Growth Conditions: C. albicans strains were cultured with 5 ml of YPD (1% yeast extract, 2% peptone, 2% dextrose, pH 6) medium at 30° C. overnight. Bacterial cells were cultured in LB (Luria-Bertani) medium consisting of 5 g Bacto-Tryptone, 2.5 g Bacto-Yeast Extract, 5 g NaCl and 7.5 g of 2% agar if preparing solid plates. The centrifuge tubes were incubated at 37° C. and left shaking overnight at 150 rpm. Fetal bovine serum was incorporated into agar. Fetal bovine serum was preheated in a water bath set at 65° C. […]

[5] = tested on: Candida albicans wild type strain SN250; test: Screen for inhibition of Candida albicans lawn formation (halo) on solid serum (FBS agar) plates; conditions: 5 μl of undiluted (neat) drug, approximately 3 mg, middle of serum-grown lawn
[6] = tested on: Candida albicans knock-out mutants; test: Genotypic mutant screening against Octodrine (three knockout libraries, 908 mutant strains); conditions: 5 μl of 10 mM drug on YPD plates, 30° C. overnight
Experimental: In order to identify C. albicans proteins and signaling pathways that mediate the lethality of Octodrine, three C. albicans knockout libraries were screened for any alterations in sensitivity to 10 mM Octodrine—collectively consisting of 908 mutant strains each strain lacking one of the virulence genes. These libraries consisted of 647 mutant strains lacking one of the essential virulence genes (Noble, S M et al., 2010, Nat Genet 42:590-598, the entire content of which is herein incorporated by reference); 96 cell wall protein mutants (Norice, C T et al., 2007, Eukaryot Cell 6:2046-2055, the entire content of which is herein incorporated by reference); and 165 transcription factors mutants (Nobile, C J et al., 2005, Curr Biol 15:1150-1155, the entire content of which is herein incorporated by reference).
Genotypic Mutant Screening Against Octodrine: Each C. albicans knockout strain was cultured in individual wells of a 96 well plate in 100 μl of YPD media overnight at 30° C. 5 μl of each Candida knock-out overnight culture was spotted onto a YPD solid plate using a multichannel pipette. The cells were then left to absorb into the YPD plates for 1 hour at 25° C. Using a multichannel pipette, 5 μl of Octodrine 10 mM was spotted directly on top of the C. albicans cells. The plates were then placed in an incubator set at 30° C. and left overnight. […]

[7] = tested on: Bacillus cereus strain 10987; test: Halo formation in bacterial lawn, gram-positive bacteria; conditions: 5 μl of neat form (3 mg of undiluted)
Excerpt: as §3, §4, §5

Molecule | inhibition of C. albicans growth (halo formation) on YPD plates [1] | inhibition of C. albicans growth (halo formation) on serum plates [2] | other results
O=C1C2CC=CCC2C(=O)N1SC(Cl)(Cl)Cl (stereo not drawn) [Captan] | strong inhibition | – | –
Cc1ccc2c(Cl)cc(Cl)c(O)c2n1 [Chlorquinaldol] | – | strongest inhibition | –
Clc1ccccc1C(c1ccccc1)(c1ccccc1)n1ccnc1 [Clotrimazole] | strong inhibition | weak inhibition | –
OC(Cn1cncn1)(Cn1cncn1)c1ccc(F)cc1F [Fluconazole] | strong inhibition | weak inhibition | inhibition of C. albicans growth (halo formation) on YPD plates ([1]; listed as fluconazole): effective inhibitor; also recorded: prominent halos; effectiveness at forming halos at 37° C. compared to 25° C. ([1]; 5 μl of 10 mM drug, 37° C. versus 25° C.): diminished effectiveness
CC(C)n1c(/C=C/C(O)CC(O)CC(=O)O)c(-c2ccc(F)cc2)c2ccccc21 (stereo not drawn) [Fluvastatin] | – | failed to inhibit | –
Clc1ccc(COC(Cn2ccnc2)c2ccc(Cl)cc2Cl)c(Cl)c1 (stereo not drawn) [Miconazole] | strong inhibition | weak inhibition | –
COc1c(C)c2c(c(O)c1C/C=C(\C)CCC(=O)O)C(=O)OC2 [Mycophenolic acid] | very strong inhibition | failed to inhibit | –
O=[N+]([O-])c1ccc(/C=N/O)o1 [Nifuroxime] | – | weaker inhibition | –
O=[N+]([O-])c1ccc(O)c2ncccc12 [Nitroxoline] | – | weaker inhibition | –
CCCCCCCC(=O)O [Octanoic acid] | – | weaker inhibition | –
CC(C)CCCC(C)N (stereo not drawn) [Octodrine, 6-methylheptan-2-amine] | moderate-to-weak anti-Candida activity and mild | strong fungal growth inhibition; also recorded: prominent ability to kill; also recorded: most prominent drug that killed C. albicans in serum; also recorded: best Candida growth inhibition | survival of mouse macrophages (cell viability relative to untreated cells) [3]: the same as to the DMSO alone; also recorded: did not affect the sensitivity; halo formation in E. coli lawn [4]: formed prominent halos; also recorded: capable of killing; elimination of serum-grown Candida lawn by undiluted drug [5]: sufficient to eliminate most of the whole fungal lawn; sensitivity of C. albicans knockout mutants relative to wild type [6]: as sensitive as their wild type strains; also recorded: no C. albicans mutants (FIG. 3) showed a decrease in sensitivity; halo formation in B. cereus lawn [7]: formed prominent halos; also recorded: capable of killing
[O-][n+]1ccccc1[S-].[O-][n+]1ccccc1[S-].[Zn+2] [Pyrithione Zinc] | strong inhibition | weak inhibition | –
Antimycin A | strong inhibition | weak inhibition | –
